The nature of the data set: photoluminescence quantum yield (fraction); solvent given as SMILES.

Where “and” joins values, the source holds several entries; their conditions need not be identical. Equal entries are not always repeated.

Turning to `CCCCCCc1ccc2c3c(ccc2c1)O[B-](c1ccccc1)(c1ccccc1)[N+](c1cc([N+]2=Cc4c(ccc5cc(CCCCCC)ccc45)O[B-]2(c2ccccc2)c2ccccc2)cc([N+]2=Cc4c(ccc5cc(CCCCCC)ccc45)O[B-]2(c2ccccc2)c2ccccc2)c1)=C3`, the photoluminescence quantum yield by setting is: (in C1CCOC1) 0.21; (in CC#N) 0.19; (in Cc1ccccc1) 0.29; (in ClCCl) 0.31.
Under “in ClCCl”, `COc1cc2c(cc1OC)C1=C[C@H](c3ccccc3)C3(C(C(=O)O[C@@H]4C[C@H]5CC[C@@H]4C5)=C(C(=O)O[C@H]4C[C@@H]5CC[C@H]4C5)N1CC2)c1ccccc1-c1ccccc13` displayed a photoluminescence quantum yield of 0.00157.
The compound `Cc1cc(C#Cc2ccccc2)c2ccc3c(C#Cc4ccccc4)cc(C#Cc4ccccc4)c4ccc1c2c43` gave a photoluminescence quantum yield (in CS(C)=O) of 0.72 and a photoluminescence quantum yield (in ClC(Cl)(Cl)Cl) of 0.56.
The compound `COc1ccc(-c2c3cc4cc(C)sc4cc3c(-c3ccc(OC)cc3)c3cc4cc(C)sc4cc23)cc1` returned a photoluminescence quantum yield (in ClCCl) of 0.61.
`CCCCN1\C(=C/C=C/C=C/C2=[N+](CCCC)c3ccc4ccccc4c3C2(C)C)C(C)(C)c2c1ccc1ccccc21` showed a photoluminescence quantum yield (in CS(C)=O) of 0.291.
`CC1(C)c2ccccc2N2c3ccccc3C3(c4cc(C#N)ccc4-c4ccc(C#N)cc43)c3cccc1c32`: the photoluminescence quantum yield (in Cc1ccccc1) was found to be 0.71.
`F[B-]1(F)OC(c2cccc(Br)c2)=Cc2c3ccccc3c3ccccc3[n+]21`: the photoluminescence quantum yield (in ClC(Cl)Cl) amounted to 0.106.
`N#Cc1ccc2nc3c(=O)[nH]c(=O)[nH]c3nc2c1` had a photoluminescence quantum yield (in ClCCCl) of 0.016.
On to `C(=C1c2ccccc2CCc2ccccc21)c1ccc(C=C2c3ccccc3CCc3ccccc32)cc1`, for which, where the note is “in C1CCOC1”, the photoluminescence quantum yield came to 0.001.
In the case of `CCCCCCCCCCCCOc1ccc(C#Cc2ccc(C#Cc3ccc(OCCCCCCCCCCCC)c(OCCCCCCCCCCCC)c3)c3nc4c5ccccc5c5ccccc5c4nc23)cc1OCCCCCCCCCCCC`, the photoluminescence quantum yield by setting is: (in C1CCOC1) 0.23; (in Cc1ccccc1) 0.19; (in ClCCl) 0.26.
On to `Cc1ccc(C#Cc2ccc(C#Cc3ccc(C#Cc4ccccc4C#N)cc3C#N)cc2C#N)cc1`, for which the photoluminescence quantum yield (in ClC(Cl)Cl) came out at 0.96.
`N#C/C(=C\c1ccc(-c2ccncc2)cc1)c1ccc(-c2ccncc2)cc1` gave a photoluminescence quantum yield (in ClCCl) of 0.002.
On the same count and under the same terms, as for `C1=C(c2ccccc2)S[C@]23C1=C(c1ccccc1)[C@H](c1ccccc12)c1ccccc13`, the figure is 1.
Compound `COC(=O)c1ccc(/C=C2\C=C(c3ccc(OC)c(OC)c3)OC2=O)cc1` showed a photoluminescence quantum yield (in C1COCCO1) of 0.355.
With `Cc1cccc(-c2[nH]c(=O)n3c2-c2ccccc2C3=O)c1O`, the photoluminescence quantum yield stood at 0.52 (in CC#N), 0.15 (in CO) and 0.6 (in ClCCl).
Consider `COCCC1=Cc2nc1ccc1[nH]c(cc1CCOC)c1nc(c(NC(=O)CCCC(=O)O)cc3[nH]c2cc3CCOC)C(CCOC)=C1`, for which, for the setting “in Cc1ccccc1”, the photoluminescence quantum yield came to 0.15.
With `Cc1cccc(-c2nc3sc4ccccc4c3s2)c1`, the photoluminescence quantum yield (in CS(C)=O) was 0.84.
`COc1ccc(-c2cc(-c3ccccc3)nn2C)cc1` had a photoluminescence quantum yield (in ClCCl) of 0.21.
In turn, `CN1/C(=C/C=C/C2=[N+](C)c3ccccc3C2(C)C)Sc2ccccc21` showed a photoluminescence quantum yield (in CS(C)=O) of 0.07.
In the case of `CCN1c2ccc(/C=N/Nc3ccccn3)cc2Sc2cc(-c3ccccc3)ccc21`, the photoluminescence quantum yield was 0.26 (in C1CCOC1), 0.37 (in CS(C)=O), 0.17 (in Cc1ccccc1) and 0.27 (in ClCCl).
Turning to `CN(C)c1ccc(/C=C/c2cc(/C=C/c3ccc(N(C)C)cc3)nc(/C=C/c3ccccc3)n2)cc1`, under “in ClCCl”, the photoluminescence quantum yield came out at 0.72.
For the setting “in ClC(Cl)Cl”, `CC[Si](CC)(CC)c1cc2ccc3cccc4ccc(c1C(=O)NC(C)(C)C)c2c34` showed a photoluminescence quantum yield of 0.162.
As to `COC(=O)C(Cc1ccc2oc(-c3ccc4c(c3)c3ccccc3n4-c3ccccc3)nc2c1)NC(=O)OC(C)(C)C` (stereo not drawn), the photoluminescence quantum yield was determined as 0.76 (in C1CCCCC1); 0.84 (in C1CCOC1); 1 (in C1COCCO1); 0.93 (in CC1CCCO1); 1 (in CC1COC(=O)O1); 0.99 (in CC#N). Also, the photoluminescence quantum yield runs as follows: (in CC(C)=O) 0.63; (in CC(C)CC(C)(C)C) 0.86; (in CC(C)CO) 1; (in CC(C)O) 1; (in CC(C)OC(C)C) 0.55; (in CC(O)CO) 1. Also, the photoluminescence quantum yield stood at 0.59 (in CCC(C)CC); 0.59 (in CCCCC); 0.58 (in CCCCCC); 0.72 (in CCCCCCCCC); 0.75 (in CCCCCCCCCC); 1 (in CCCCCCCO). The photoluminescence quantum yield is, setting by setting: (in CCCCCCO) 0.94; (in CCCCCO) 1; (in CCCCO) 1; (in CCO) 1; (in CCOC(C)=O) 0.96; (in CCOCC) 0.68. This compound registered a photoluminescence quantum yield (in CN(C)C=O) of 1; a photoluminescence quantum yield (in CO) of 0.99; a photoluminescence quantum yield (in COCCOC) of 0.7; a photoluminescence quantum yield (in CS(C)=O) of 0.88; a photoluminescence quantum yield (in Cc1ccccc1) of 0.78; a photoluminescence quantum yield (in Cc1ccccc1C) of 0.92. Besides, the photoluminescence quantum yield (in ClC(Cl)Cl) was found to be 0.93; the photoluminescence quantum yield (in ClCCl) is 0.94; the photoluminescence quantum yield (in NC=O) came out at 0.82; the photoluminescence quantum yield (in OC1CCCCC1) amounted to 0.95; the photoluminescence quantum yield (in OCCO) was found to be 1; the photoluminescence quantum yield (in c1ccccc1) was found to be 0.97.
With `C(#Cc1cccs1)C(C#Cc1cccs1)=Cc1ccc(C=C(C#Cc2cccs2)C#Cc2cccs2)s1`, where the note is “in ClC(Cl)Cl”, the photoluminescence quantum yield was 0.03 and 0.07.
In the case of `F[B-]1(F)n2c(nc(-c3ccccc3)c2-c2ccccc2)-c2cccc[n+]21`, the photoluminescence quantum yield was 0.34 (in C1CCCCC1); 0.17 (in C1CCOC1); 0.26 (in C1COCCO1); 0.1 and 0.19 (in CC#N); 0.22 and 0.3 (in CCCCCC); 0.12 and 0.1 (in CO). Besides, the photoluminescence quantum yield (in ClC(Cl)Cl) is 0.23 and 0.3; the photoluminescence quantum yield (in ClCCl) was 0.15.
For the compound `CC1=[N+]2C(=C(Oc3ccccc3)c3ccc(C)n3[B-]2(F)F)C=C1c1cc2n(c1)[B-](F)(F)[N+]1=CC=CC1=C2c1c(C)cc(C)cc1C`, the photoluminescence quantum yield was 0.89 (in C1CCCCC1) and 0.16 (in CCOC(C)=O).
For the compound `COC(=O)C(NC(=O)OC(C)(C)C)c1ccc2oc(-c3cc(C(F)(F)F)cc(C(F)(F)F)c3)nc2c1` (stereo not drawn), the photoluminescence quantum yield is 0.54 (in CC1CCCCC1), 0.46 (in CC#N) and 0.44 (in CO).
`COC(=O)c1nc2cnc(N(C)C)nc2n1Cc1ccccc1`: the photoluminescence quantum yield reads like this: (in C1COCCO1) 0.83; (in CC#N) 0.6; (in CO) 0.17; (in ClCCl) 0.81.
Under “in ClC(Cl)Cl”, `Ic1ccc(C2=C3C=CC4=[N+]3[B-]3(Oc5ccccc54)Oc4ccccc4-c4ccc2n43)cc1` (stereo not drawn) displayed a photoluminescence quantum yield of 0.41.
`C#Cc1ccc2cc3c(C)cc(=O)oc3cc2c1` registered a photoluminescence quantum yield (in CCO) of 0.01.
`CC[N+]1(CC)CN2C(C)=CC(C)=C(C(=O)O)C2=N1`: the photoluminescence quantum yield is, setting by setting: (in CN(C)C=O) 0.056; (in O) 0.622.
`CCC1(CC)c2cc(/C=C/c3ccc(/C=C/c4ccc5c(c4)C(CC)(CC)c4cc(N6c7ccccc7Sc7ccccc76)ccc4-5)cc3)ccc2-c2ccc(N3c4ccccc4Sc4ccccc43)cc21`: the photoluminescence quantum yield worked out at 0.33 (in C1CCOC1); 0.26 (in CC#N); 0.72 (in CCCCCC); 0.58 (in Cc1ccccc1); 0.33 (in ClCCl).
Compound `Cc1cc(=O)oc2cc3cc(O)ccc3cc12` gave a photoluminescence quantum yield (in CC#N) of 0.02 and a photoluminescence quantum yield (in CCO) of 0.35.
As to `c1ccc(-c2nn(-c3ccccc3)c3nc4ccc(N(c5ccccc5)c5cccc6ccccc56)cc4cc23)cc1`, the photoluminescence quantum yield amounted to 0.57 (in C1CCCCC1); 0.57 (in C1CCOC1); 0.41 (in CC#N); 0.53 (in CC(C)=O); 0.56 (in CCCCCl); 0.56 (in CCCCOCCCC). The compound further had a photoluminescence quantum yield (in CN(C)C=O) of 0.47.
In the case of `C1=Cc2ccc3ccccc3c2N(c2ccccc2)B1c1ccccc1`, the photoluminescence quantum yield (in C1CCCCC1) amounted to 0.04.
`NNC(=O)c1ccc(/C=C/c2ccc(C(=O)NN)cc2)cc1` registered a photoluminescence quantum yield (in CN(C)C=O) of 0.2.
As to `COc1ccc(-c2cc3ccc4cc(-c5ccc(OC)cc5)cc5ccc(c2)c3c45)cc1`, the photoluminescence quantum yield by setting is: (in C1CCCCC1) 0.08; (in C1CCOC1) 0.17; (in CC#N) 0.13; (in CCCCCC) 0.04; (in CCO) 0.12; (in CN(C)C=O) 0.34. Besides, the photoluminescence quantum yield is, setting by setting: (in CO) 0.09; (in Cc1ccccc1) 0.09; (in ClC(Cl)Cl) 0.04; (in ClCCl) 0.09.
With `Cc1cccc2[n+]1[B-](F)(F)n1c(c3cccc4cccc1c43)=N2`, the photoluminescence quantum yield (in C1CCOC1) was 0.99; the photoluminescence quantum yield (in CC#N) came out at 0.99; the photoluminescence quantum yield (in CCCCCC) was found to be 0.99; the photoluminescence quantum yield (in Cc1ccccc1) was found to be 0.99; the photoluminescence quantum yield (in ClCCl) turned out to be 0.99.
`Cc1ccc(-n2c(-c3cccc4cc[n-]c34)[nH+]c3c4ccccc4c4ccccc4c32)cc1` yielded a photoluminescence quantum yield (in Cc1ccccc1) of 0.015.

(Values after the Deep4Chem optical property database.)
